Experimental data published in PubChem BioAssay (NCI).
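Interpolation was linear, between the two tested concentrations surrounding the appropriate level; five concentrations were tested over 48 hours in 96-well plates. GI50: concentration for 50% inhibition of growth. At the TGI there is no net growth.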

Tests used:
Test in all cases: NCI tumour cell line growth inhibition, 48 h
[1] = system: P388/ADR leukemia
[2] = system: SK-OV-3 ovarian
[3] = system: SNB-75 CNS
[4] = system: HOP-62 NSCLC
[5] = system: KM12 colon
[6] = system: NCI-H226 lung
[7] = system: MCF7 breast
[8] = system: MDA-MB-435
[9] = system: DU-145 prostate
[10] = system: OVCAR-4 ovarian

CC[C@@]1(O)C(=O)OCc2c1cc1n(c2=O)Cc2cc3ccccc3nc2-1
TGI [1]: 677 nM
GI50 [2]: 24.1 nM
TGI [2]: 1420 nM
TGI [3]: 314 nM
TGI [4]: 132 nM
GI50 [5]: 292 nM
TGI [5]: 5610 nM
GI50 [6]: 20.2 nM
TGI [6]: 177 nM
TGI [7]: 203 nM
TGI [8]: 285 nM
TGI [9]: 60.5 nM
TGI [10]: 2210 nM
